# Experimental data as given in the METLIN SMRT retention time set (Domingo-Almenara et al. 2019).
# Assay: gradient 5% acetonitrile 3 min, to 50% in 2 min, to 85% in 15 min, held 3 min, 100 µL/min
# Details: column: Zorbax Extend-C18 2.1 x 50 mm; eluents: water / acetonitrile, 0.1% formic acid
# Summary of the method: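 The mobile phases were water and acetonitrile, each with 0.1% formic acid, pumped at 100 μL/min through a Zorbax Extend-C18 column (2.1 × 50 mm, 1.8 μm). Pure standards were injected as mixtures of ~100 molecules and detected by a quadrupole time-of-flight mass spectrometer in positive and negative ionization mode. Retention time came from computationally picked adduct peaks, each inspected by hand.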
row,SMILES,RP-LC retention time
1,Cc1scc2nc(C(=O)NCc3ccc(F)cc3)nc(N3CCCC3)c12,561 s
2,Cc1nnc2c(=O)n(CC(=O)NCc3cccc(Cl)c3)c3cccnc3n12,700 s
3,O=C(Cn1nc2c(cc1=O)CCCC2)Nc1nc(-c2cccnc2)cs1,607 s
4,COc1ccc(-c2nn(-c3ccccc3)cc2C(=O)O)cc1N,661 s
5,O=C(CN1CCN(C(=O)c2cc3cn(C4CCCC4)cc3s2)CC1)N1CCCC1,1150 s
6,O=C(NC1CCc2ccccc21)C1CCN(c2ncccc2-c2nc(-c3cccc(F)c3)no2)CC1 (configuration not stated),1160 s
7,Cn1c(=O)c(C(=O)N2CCN(c3ccccn3)CC2)nn(-c2ccc(Cl)cc2)c1=O,663 s
8,O=C(NC1CCN(c2cc(-c3ccccc3)[nH]n2)C1)c1cc2ccccc2[nH]1 (configuration not stated),739 s
9,CCOC(=O)Cn1c(=O)c2cnc(-c3ccc(C)cc3)nc2n(C)c1=O,1060 s
10,Cc1ccc(NC(=O)Nc2nccn(-c3ccc(F)c(F)c3)c2=O)cc1F,1020 s
11,CCOC(=O)C1CCN([C@H]2CS(=O)(=O)C[C@@H]2S(=O)(=O)c2ccc(F)cc2)CC1,889 s
12,Nc1ccccc1C(=O)Nc1ccc(Cl)cc1Cl,1080 s
13,O=C(NCc1ccccc1)C1=Cc2ccccc2OC=C1,933 s
14,COc1ccc(OC)c(NC(=O)Nc2c(-c3ccc(C)cc3)nc3ccccn23)c1,698 s
15,CN1C(=O)c2cc(C(=O)NCCC3=CCCCC3)nn2CC1(C)C(=O)NCc1ccc(F)cc1 (configuration not stated),811 s
16,CC(C)n1cnc(S(=O)(=O)N2CCC(C(=O)NCCCc3ccccc3)CC2)c1,764 s
17,O=C(Nc1ccc(-c2cn3cccnc3n2)cc1)c1ccc(F)c(F)c1,647 s
18,O=C1CC(C(F)(F)F)c2c(c(C(=O)O)cn2-c2cccc(Cl)c2)N1 (configuration not stated),786 s
19,CCN(CC)S(=O)(=O)c1cccc(-c2cn3cc(C)ccc3n2)c1,598 s
20,CCOc1ccc(OCC)c(NC(=O)CSc2cc(N3CCC(C(=O)NC4CC4)CC3)ncn2)c1,860 s

row,SMILES,RP-LC retention time
1,COC(=O)c1ccccc1NC1=NS(=O)(=O)C(c2ccc(F)cc2)=C1C,1050 s
2,CCOC(=O)c1nc(Nc2ccc(F)cc2F)c2ccccc2n1,845 s
3,Cc1c(Cl)cccc1NC(=O)Cn1nc(C(=O)N2CCCCC2)c2ccccc21,917 s
4,CCc1cccc(NC(=O)C2CC(=O)N(c3ccc4c(c3)CCN4C(C)=O)C2)c1 (configuration not stated),707 s
5,CC(C)CC(NC(=O)[C@H]1CCCN1C(=O)OCc1ccccc1)C(=O)NCC(=O)NO (some centres not stated),648 s
6,Cc1cc(NC(=O)Cn2cnc3c(oc4ccccc43)c2=O)no1,668 s
7,Cc1ccccc1CNS(=O)(=O)c1ccc2c(c1)C(=O)N(C)c1ncccc1O2,1010 s
8,Cc1cccc(Cn2nnc(C(=O)O)c2-c2cccnc2)c1,669 s
9,COc1ccc(-c2nc3nccc(-c4ccsc4)n3n2)c(OC)c1,832 s
10,CCOC(=O)c1ccc(NC(=O)CCc2c(-c3ccc(F)cc3)nc3ccccn23)cc1,700 s
11,Cc1ccc(NC(=O)Cn2nc3c(Oc4ccccc4C)nccn3c2=O)c(C)c1,873 s
12,Cc1ccc(CN2CCCn3nc(C(=O)NCCCN4CCOCC4)cc3C2=O)cc1,618 s
13,Cc1ccccc1NC(=O)C1CCN(S(=O)(=O)c2ccc3c(c2)sc(=O)n3C(C)C)CC1,951 s
14,Cn1cc(C2=CCN(S(=O)(=O)c3cccc(F)c3)CC2)c2cccnc21,969 s
15,Cc1cccc(Nc2c(-c3ccc(O)cc3)nc3ncccn23)c1,700 s
16,CC(C)CN1CCN(Cc2nc(-c3ccc(N4CCCC(C)C4)nc3)no2)CC1 (configuration not stated),645 s
17,O=C(NCc1ccco1)c1nc2ccccn2c1-c1ccccc1,783 s
18,O=C(NC1(c2nc(-c3cccnc3)no2)CCCCC1)c1ccc(F)c(Cl)c1,1030 s
19,C=CCNC(=O)c1ccc2nc(C)c(C)nc2c1,626 s
20,O=C(c1cc(Cl)ccc1Cl)N1CCN(c2cc(-c3cccs3)[nH]n2)CC1,870 s

# Other lines, results leading:
row,RP-LC retention time,SMILES
1,669 s,CCc1nn2c(CNC(=O)c3cc(F)ccc3Cl)c(C)nc2s1
2,810 s,COC(=O)CCc1sc(Nc2ccccn2)nc1-c1ccc(OC)cc1
3,1120 s,Cc1cc(C)c(S(=O)(=O)N2CCC(n3cnc4c(C)cccc4c3=O)CC2)c(C)c1
4,943 s,O=C(c1[nH]nc2c1COc1ccccc1-2)N1CC(c2noc(COc3ccc(F)cc3)n2)C1
5,652 s,CCN(CC)C(=O)c1ccc2c(c1)N(CC(=O)NCc1ccco1)C(=O)CO2
6,1120 s,O=C(Cn1nc(N2CCCCCC2)c2ccccc2c1=O)NC1CCc2ccccc21 (configuration not stated)
7,904 s,O=C(c1cnn2cc(Br)cnc12)N1CCCC1c1cccc(F)c1 (configuration not stated)
8,678 s,CCOC(=O)C1CCN(C(=O)Cn2cnc3nc4c(cc3c2=O)CCCC4)CC1
9,624 s,CCOC(=O)c1c(C)[nH]c(C(=O)N2CCCC(C(=O)NCCCN3CCCCCC3)C2)c1C (configuration not stated)
10,974 s,O=C(CCn1nnc2cc(-c3noc(-c4ccc(C(F)(F)F)cc4)n3)ccc21)N1CCOCC1
11,590 s,COc1cc2c(cc1OC)C(C(=O)N1CCN(c3ccccn3)CC1)C1c3ccccc3CCN1C2=O (configuration not stated)
12,607 s,CCC(CC)N1CCN(C(=O)c2ccc3[nH]c4c(c3c2)CN(C(=O)C2CCC2)CC4)CC1
13,822 s,CCOc1cc(C(=O)NC2CCN(c3cc(-c4ccccc4)[nH]n3)C2)cc(OCC)c1OCC (configuration not stated)
14,782 s,CNC(=O)NCC(c1ccc(F)cc1)c1c[nH]c2ccccc12 (configuration not stated)
15,1110 s,Cc1cc(C)cc(NC(=O)N2CCCC2c2nc(-c3ccccc3C)no2)c1 (configuration not stated)
16,898 s,O=C(Cn1c(=O)oc2ccc(Cl)cc21)N1CCc2ccccc21
17,961 s,Cc1ccc(-n2c(N3CCCC(C(=O)NCC(C)c4ccccc4)C3)nc3ccsc3c2=O)cc1 (configuration not stated)
18,683 s,Cc1ccc(F)cc1NC(=O)Cc1nnc(-c2cnccn2)o1
19,1240 s,CCn1c(C(=O)Nc2ccc(C)cc2C)cc2sc(Cl)cc21
20,594 s,Cc1nccn1-c1cc(N2CCCCC2)nc2ccnn12
21,1050 s,Cc1cc(C)c(C)c(S(=O)(=O)NCC2(c3cccs3)CCOCC2)c1C
22,1170 s,CC1=NS(=O)(=O)N(Cc2ccccc2)C=C1C(=O)OCc1ccccc1C
23,902 s,CCOC(=O)c1cccc(Nc2c(-c3ccc(C(=O)OC)cc3)nc3cnccn23)c1
24,875 s,O=C(Cn1cccc(-c2nc(-c3ccc(F)cc3)no2)c1=O)Nc1ccc(F)cc1F

row,RP-LC retention time,SMILES
1,826 s,Cc1ccc(Nc2c(-c3cccc(Br)c3)nc3cccc(C)n23)cc1
2,882 s,CCCCNc1nc2c(c(=O)n(C)c(=O)n2C)n1CC(O)COc1ccccc1 (configuration not stated)
3,595 s,Cc1cc(N2CCN(C(=O)c3ccc4c(c3)OCO4)CC2)nc2nnc(C)n12
4,650 s,CCCn1ncc(N2CCC(C(=O)NCCCOC(C)C)CC2)cc1=O
5,1000 s,CCc1cc(=O)n(CC(=O)NCc2ccc3c(c2)OCO3)c(-c2ccccc2)n1
6,700 s,CCN(CC)C(=O)c1ccc(-c2nc3cc(NS(=O)(=O)c4ccc(C)cc4)ccc3n2C)cc1
7,585 s,O=C(NCC(c1ccco1)N1CCN(c2ccc(F)cc2)CC1)c1cnccn1 (configuration not stated)
8,728 s,O=C(Nc1ccc2c(c1)OCCO2)N1C[C@@H]2CN(S(=O)(=O)c3ccccc3)C[C@H](C1)O2
9,779 s,CCN1C(=O)c2c(C(=O)NCCc3ccc(C)cc3)ncn2CC1(C)C(=O)NC1CCCC1 (configuration not stated)
10,606 s,CCc1nc2cc(N3CCCC(C(=O)NC(C)c4cccnc4)C3)cnc2nc1CC (configuration not stated)
11,724 s,COc1ccc(OC)c(NC(=O)Cn2ncc3c(c2=O)N(C2CC2)C(=O)CS3)c1
12,721 s,Cc1cc2[nH]c(C(=O)Nc3ccc(F)cc3Cl)c(CN3CCOCC3)c2s1
13,735 s,NS(=O)(=O)c1cccnc1Nc1ccc2c(c1)OCCO2
14,619 s,COc1ccc(C(=O)NCCc2sc(-c3cccnc3)nc2C)cc1
15,586 s,CSc1ncccc1C(=O)N1CCCn2nc(-c3ccncc3)cc2C1
16,853 s,Cc1ccc(C2Cn3cnc(C(=O)N4CCC(C(=O)NCCCc5ccccc5)CC4)c3CO2)cc1 (configuration not stated)
17,626 s,Cc1ccsc1C(=O)N1CCC(C2CCN(S(C)(=O)=O)CC2)C1 (configuration not stated)
18,596 s,O=C(NCCN1CCCCCC1)C(=O)Nc1ccc2nc3n(c(=O)c2c1)CCCCC3
19,966 s,Cc1ccc(S(=O)(=O)N2C(=O)CCC2C(=O)NCc2ccc(Cl)cc2)cc1C (configuration not stated)
20,629 s,NC(=O)C1CCN([C@H]2CS(=O)(=O)C[C@@H]2S(=O)(=O)c2ccc(F)cc2)CC1
21,1050 s,Cc1oc2ncnc(N3CCCC(C(=O)Nc4cccc(Cl)c4)C3)c2c1C (configuration not stated)
22,742 s,CCOC(=O)c1cnc2nc(C)ccc2c1Nc1ccc(F)cc1Cl
23,689 s,Cc1noc(C)c1CNC(=O)NCCc1ccccc1
